According to patent US20250084039A1, “4-SUBSTITUTED AMINOISOQUINOLINE DERIVATIVES” (Purdue Research Foundation, priority 2016, published 2025):
Read-outs that look alike come from different tables or passages of the source.

What was measured:
HCT116 = assay: Proliferation inhibition at single concentration (CellTiter-Blue); type: cell-based; settings: 1 μM compound
MCF-7 = assay: as above; type: cell-based; settings: 1 μM compound
Description: (§1) Plates were then treated with compound diluted in dimethyl sulfoxide (DMSO) as well as a DMSO control the following day for 72 hours. After this time the plates were then treated with 10 μL of CellTiter-Blue Cell Viability Assay (Promega, Madison, WI) for 4 hours. Then the plates were read on a plate reader (Bio-Tek, Winooski, VT). Data was analyzed on Excel as a percent of the DMSO vehicle.
(§2) Antiproliferative activities against AML cell line, MV4-11 (a FLT3-driven cell line) and three other solid tumors (MCF7, breast, HCT116, colon and HeLa) have been investigated (Tables 6A and 6B and FIG. 10).

HeLa = assay: as above; type: cell-based; settings: 1 μM compound
Description: as §1, §2

MV4-11 = assay: Activity against AML cell line MV4-11 (CellTiter-Blue, 72 h); type: cell-based
Description: Cells were added to 96 well plates at 2000 cells per well for adherent lines and 4000 cells per well for suspension lines and kept in an incubator overnight. The following day the plates were treated with compounds to give rise to the final concentrations of; 100 μM, 10 μM, 5 μM 1 μM, 500 nM, 100 nM, 10 nM, […]. The plates were then stored in the incubator for 72 hours. On the third day the cells were assayed with 20 μL of CellTiter—Blue Cell Viability Assay per well and were incubated for 4 hours. After 4 hours' fluorescence intensity was taken on a plate reader: Excitation: 560/10 Emission: 590/10. IC50 analysis was performed on GraphPad Prism 7.

MV-4-11 = assay: Proliferation inhibition at single concentration (CellTiter-Blue); type: cell-based; settings: 1 μM compound
TRKC = TRKC (Homo sapiens (Human), UniProt Q16288); assay: Reaction Biology HotSpot kinase assay; type: biochemical; settings: 500 nM compound, 100 μM radiolabeled ATP
Description: (§3) The Reaction Biology Corporation (www.reactionbiology.com, Malvern, PA) HotSpot assay platform was used to measure kinase/inhibitor interactions exactly as previously described. Kinase and substrate were mixed in a buffer containing 20 mM HEPES pH 7.5, 10 mM MgCl2, 1 mM EGTA, 0.02% Brij35, 0.02 mg/mL BSA, 0.1 mM Na3VO4, 2 mM DTT and 1% DMSO. Single-dose of compounds (500 nM) were then added to each reaction mixture. After 20-minute incubation. ATP (Sigma) and [γ-^33P] ATP (Perkin Elmer) were added at a final total concentration of 100 μM for addition 2 hours at room temperature, followed by spotting onto P81 ion exchange cellulose chromatography paper (Whatman, Inc.). […] Percent remaining kinase activity of a vehicle (DMSO) containing kinase reaction was calculated for each kinase/inhibitor pair using Prism 5 (GraphPad).
as §3, with “1” for “DTT”, “incubation,” for “incubation.”

c-kit = c-kit (Homo sapiens (Human), UniProt P10721); assay: Reaction Biology HotSpot kinase assay; type: biochemical; settings: 500 nM compound, 100 μM radiolabeled ATP
Description: as §3
as §3, with “1” for “DTT”, “incubation,” for “incubation.”

[1] = 72 h, read-out: IC50 against MV4-11/uM
[2] = FIG. 1, read-out: anticancer activities (IC50) against MV4-11
[3] = Table 2, read-out: IC50 (nM) against MV4-11 (AML cell line)

Chain of TRKC (Q16288 32-839): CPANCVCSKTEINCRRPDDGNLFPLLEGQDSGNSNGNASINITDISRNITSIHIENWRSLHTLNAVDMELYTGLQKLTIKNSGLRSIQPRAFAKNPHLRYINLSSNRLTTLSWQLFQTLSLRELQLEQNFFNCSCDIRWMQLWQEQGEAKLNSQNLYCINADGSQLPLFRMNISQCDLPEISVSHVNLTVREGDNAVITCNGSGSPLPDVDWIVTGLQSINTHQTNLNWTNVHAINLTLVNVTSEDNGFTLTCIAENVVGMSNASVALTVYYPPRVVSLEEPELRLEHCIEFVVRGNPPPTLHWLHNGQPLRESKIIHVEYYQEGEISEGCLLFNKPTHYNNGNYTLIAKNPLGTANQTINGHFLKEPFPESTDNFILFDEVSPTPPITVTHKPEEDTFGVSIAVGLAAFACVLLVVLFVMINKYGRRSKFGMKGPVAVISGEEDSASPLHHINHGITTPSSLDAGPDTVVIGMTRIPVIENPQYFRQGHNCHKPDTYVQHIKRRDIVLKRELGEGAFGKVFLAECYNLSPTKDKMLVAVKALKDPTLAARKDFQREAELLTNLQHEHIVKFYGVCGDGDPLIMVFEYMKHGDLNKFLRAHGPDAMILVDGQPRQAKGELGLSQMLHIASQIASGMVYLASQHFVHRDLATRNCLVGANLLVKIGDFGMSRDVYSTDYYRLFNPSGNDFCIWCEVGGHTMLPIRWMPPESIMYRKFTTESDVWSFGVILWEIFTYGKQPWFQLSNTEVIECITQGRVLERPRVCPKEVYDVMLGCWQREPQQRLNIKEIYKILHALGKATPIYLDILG
Chain of c-kit (P10721 26-976): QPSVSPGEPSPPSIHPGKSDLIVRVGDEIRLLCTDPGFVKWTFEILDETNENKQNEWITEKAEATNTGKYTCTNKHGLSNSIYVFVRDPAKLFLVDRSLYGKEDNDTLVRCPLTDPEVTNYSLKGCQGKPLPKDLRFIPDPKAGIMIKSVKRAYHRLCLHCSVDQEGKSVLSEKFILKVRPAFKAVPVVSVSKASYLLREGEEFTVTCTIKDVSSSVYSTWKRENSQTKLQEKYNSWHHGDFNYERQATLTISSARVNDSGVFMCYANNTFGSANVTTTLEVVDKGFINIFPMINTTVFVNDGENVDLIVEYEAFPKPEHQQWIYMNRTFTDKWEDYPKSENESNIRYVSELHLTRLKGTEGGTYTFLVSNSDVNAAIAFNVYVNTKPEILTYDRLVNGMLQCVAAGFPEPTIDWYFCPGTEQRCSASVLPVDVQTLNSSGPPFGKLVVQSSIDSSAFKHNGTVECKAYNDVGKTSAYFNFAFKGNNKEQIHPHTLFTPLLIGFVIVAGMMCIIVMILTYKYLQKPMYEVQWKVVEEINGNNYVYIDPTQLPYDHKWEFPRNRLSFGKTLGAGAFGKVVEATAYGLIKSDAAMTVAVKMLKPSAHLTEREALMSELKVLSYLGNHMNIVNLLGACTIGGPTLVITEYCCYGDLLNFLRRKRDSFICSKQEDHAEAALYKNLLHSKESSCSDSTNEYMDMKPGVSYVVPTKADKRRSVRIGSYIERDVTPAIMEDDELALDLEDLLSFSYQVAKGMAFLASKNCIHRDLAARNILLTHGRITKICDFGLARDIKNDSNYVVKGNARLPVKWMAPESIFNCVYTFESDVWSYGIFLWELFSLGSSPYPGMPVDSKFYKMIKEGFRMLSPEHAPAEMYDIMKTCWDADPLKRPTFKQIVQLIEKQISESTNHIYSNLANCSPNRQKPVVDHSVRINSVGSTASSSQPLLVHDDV

| IC50 (MV4-11; [1]) [µM] | IC50 (MV4-11; [2]) [µM] | IC50 (MV4-11; [3]) [µM] | Compound | Percent inhibition of proliferation HCT116 (HCT116) [%] | Percent inhibition of proliferation MCF-7 (MCF-7) [%] | Percent inhibition of proliferation HeLa (HeLa) [%] | Percent inhibition of proliferation MV-4-11 (MV-4-11) [%] | % inhibition of TrkC (TRKC) [%] | % inhibition of c-Kit (c-kit) [%] |
| --- | --- | --- | --- | --- | --- | --- | --- | --- | --- |
| 0.45 | 0.45 | – | COCCCNC(=O)c1ccc(C#Cc2c(N)ncc3ccc(Cl)cc23)cc1 [HSM1692] | 29 | 22 | 0 | 81 | – | – |
| 0.03 | – | 0.0148 ± 0.0014 | CC(C)(C)OC(=O)N1CCN(CCCNC(=O)c2ccc(C#Cc3c(N)ncc4ccc(Cl)cc34)cc2)CC1 [HSM1693] | – | – | – | – | – | – |
| 0.061 | – | – | CN(CCCN1CCCCC1)C(=O)c1ccc(C#Cc2c(N)ncc3ccc(Cl)cc23)cc1 [HSN105] | 40 | 12 | 1 | 88 | – | – |
| 0.11 | – | – | CN1CCN(CCCNC(=O)c2ccc(C#Cc3c(N)ncc4ccc(Cl)cc34)cc2)CC1 [HSM1674] | 14 | 36 | 8 | 93 | – | – |
| 0.26 | 0.26 | – | CN(C)CCNC(=O)c1ccc(C#Cc2c(N)ncc3ccc(Cl)cc23)cc1 [HSM1669] | 46 | 98 | 20 | 83 | – | – |
| 0.25 | 0.25 | – | CN(C)CCCNC(=O)c1cccc(C#Cc2c(N)ncc3ccc(Cl)cc23)c1 [HSM1688] | 43 | 33 | 64 | 74 | – | – |
| 0.008 | – | – | Nc1ncc2ccc(Cl)cc2c1C#Cc1ccc(C(=O)NCC(O)CN2CCCCC2)cc1 (centres unmarked) [HSM1725] | – | – | – | – | – | – |
| 0.05 | – | – | Nc1ncc2ccc(Cl)cc2c1C#Cc1ccccc1C(=O)NCCCN1CCCCC1 [HSM1717] | 33 | 76 | 2 | 82 | – | – |
| – | – | – | CN(C)CCOc1ccc(CNC(=O)c2ccc(C#Cc3c(N)ncc4ccc(Cl)cc34)cc2)cc1 [HSN99] | 20 | 42 | 6 | 97 | – | – |
| 0.77 | – | – | N#Cc1cccc(C#Cc2c(N)ncc3ccc(Cl)cc23)c1 [HSM1617] | – | – | – | – | – | – |
| 0.003 | – | 0.0421 ± 0.0013 | Nc1ncc2ccc(Cl)cc2c1C#Cc1ccc(C(=O)NCCCN2CCCCC2)cc1 [HSM1683] | 10 | 57 | 49 | 95 | – | – |
| – | – | – | CCN(CC)CC(O)CNC(=O)c1cccc(C#Cc2c(N)ncc3ccc(Cl)cc23)c1 (centres unmarked) [HSN189] | 7 | 49 | 18 | 95 | – | – |
| 0.071 | 0.071 | – | CN(C)CCCCCNC(=O)c1ccc(C#Cc2c(N)ncc3ccc(Cl)cc23)cc1 [HSM1684] | – | – | – | – | – | – |
| – | – | – | NCC(O)CNC(=O)c1ccc(C#Cc2c(N)ncc3ccc(Cl)cc23)cc1 (centres unmarked) [HSN177] | 15 | 46 | 1 | 91 | – | – |
| 3.09 | – | – | O=C(NCCCN1CCCCC1)c1ccc(C#Cc2cncc3ccccc23)cc1 [HSM1690] | – | – | – | – | – | – |
| – | – | – | Nc1ncc2ccc(Cl)cc2c1C#Cc1ccc(C(=O)N2CCC3(CCNCC3)CC2)cc1 [HSM1773] | 24 | 43 | 24 | 93 | – | – |
| 0.011 | – | 0.025 ± 0.0014 | Nc1ncc2ccc(Cl)cc2c1C#Cc1ccc(C(=O)NCCCN2CCCC2)cc1 [HSM1673] | 28 | 56 | 38 | 98 | – | – |
| – | – | – | (E)-4-(2-(3-amino-6-chloroisoquinolin-4-yl)vinyl)-N-hydroxybenzimidamide [HSM1859] | – | – | – | – | 42 | 62 |
| – | – | – | CCN(CC)CC(O)CNC(=O)c1ccc(C#Cc2c(N)ncc3ccc(Cl)cc23)cc1 (centres unmarked) [HSN184] | 38 | 92 | 51 | 97 | – | – |
| 0.006 | – | – | Nc1ncc2ccc(Cl)cc2c1C#Cc1ccc(C(=O)NCCN2CCCCC2)cc1 [HSN137] | 60 | 74 | 20 | 99 | – | – |
| 0.016 | – | – | CN1CCN(Cc2ccc(NC(=O)c3ccc(C#Cc4c(N)ncc5ccc(Cl)cc45)cc3)cc2)CC1 [HSM1661] | 0 | 96 | 1 | 90 | – | – |
| 0.008 | – | – | Nc1ncc2ccc(Cl)cc2c1C#Cc1ccc(C(=O)N[C@H]2CC[C@H](N)CC2)cc1.O=C(O)C(F)(F)F [HSN129] | 29 | 37 | 22 | 99 | – | – |
| – | – | – | NCCNC(=O)c1ccc(C#Cc2c(N)ncc3ccc(Cl)cc23)cc1 [HSN204] | 21 | 20 | 22 | 77 | – | – |
| 0.033 | – | – | Nc1ncc2ccc(Cl)cc2c1C#Cc1ccc(C(=O)N2CCC(N3CCCCC3)CC2)cc1 [HSN135] | 21 | 35 | 0 | 100 | – | – |
| 0.095 | – | – | Nc1ccc(CCNC(=O)c2ccc(C#Cc3c(N)ncc4ccc(Cl)cc34)cc2)cc1 [HSN136] | 38 | 33 | 0 | 86 | – | – |
| – | – | – | Nc1ncc2ccc(Cl)cc2c1C#Cc1cccc(C(=O)N2CCC(N)CC2)c1.O=C(O)C(F)(F)F [HSN174] | 28 | 40 | 10 | 85 | – | – |
